In PMC5397029, “Variations in the interaction of human defensins with Escherichia coli: Possible implications in bacterial killing” (PLoS ONE, 2017):
Entries after “also recorded” stand apart in the source; their conditions may differ. Where two headings read alike, the source gives them in different places. Peptide text beside a SMILES is read from it.

Experiments:
E. coli inner membrane [1] = assay: Time-lapse fluorescence confocal microscopy (SYTOX green / FM4-64); format: cell-based, Escherichia coli; conditions: for Intracellular accumulation of SYTOX green (E. coli inner membrane permeabilization): sub-lethal concentrations: HBD1 3 μM, HBD2 3 μM, HBD3 1 μM, HBD4 3 μM, HNP3 8 μM, HNP4 4 μM, HD5 2.5 μM, HD6 5 μM, 10^6 CFU/mL, 10 mM sodium phosphate buffer pH 7.4; for Intracellular accumulation of SYTOX green (E. coli inner membrane permeabilization) / time at which SYTOX green accumulation is evident: 5 nM SYTOX green; for time at which SYTOX green accumulation is evident: sub-lethal defensin concentrations, time-lapse confocal microscopy
Procedure: Effect of defensins on the E. coli inner membrane was examined using time-lapse confocal fluorescence microscopy. The assay was carried out as follows. Bacteria from the mid-log-phase was collected and resuspended (final density was adjusted to 10^6 CFU/mL) in 10 mM sodium phosphate buffer (pH 7.4). Cells were then treated with 3 μM FM4-64 for 20 minutes at room temperature to stain the inner membrane. FM4-64 is a lipophilic dye which stains the bacterial inner membrane. Excess dye was removed by centrifuging. The FM4-64 stained cells were then treated with sub-lethal concentrations of defensins in presence of 5 nM of SYTOX green. […] Cells were immediately transferred to chambered slides and images were recorded using 100X oil immersion objective on a Leica Ultraspectral microscope SP8 (Leica Microsystems). Argon 488 and HeNe 561 lasers were used to excite SYTOX green and FM4-64, respectively. Signals ranging from 510 to 560 nm and 600 to 740 nm were collected for SYTOX green and FM4-64, respectively. Images were processed using LAS-AFver3.1.3 (Leica Microsystems).

E. coli = assay: Zeta potential of E. coli in the presence of defensins; format: cell-based, Escherichia coli; conditions: for E. coli surface charge neutralizing ability (change in zeta potential): 5 μM defensin, except HD5 2.5 μM and HBD3 0.5 μM, three independent experiments; for concentration found to neutralize the E. coli surface charge almost completely: zeta potential of E. coli
Procedure: Zeta potential of the E. coli in the presence of human defensins was measured as described previously. The concentration of peptide used was 5μM, except for HBD3 and HD5. […] Cells were treated with 5 μM defensin and zeta potential was measured, except in the cases of HD5 and HBD3. In the cases of HD5 and HBD3, zeta potential was measured after treating with 2.5 μM and 0.5 μM of peptides, respectively. Control represent zeta potential of E. coli in the absence of any peptide. Error bars represents standard deviations of three independent experiments.

E. coli inner membrane [2] = assay: SYTOX green uptake assay using fluorescent spectroscopy; format: cell-based, Escherichia coli; conditions: 2 × MBC of defensins, 200 nM SYTOX green, 5 × 10^6 CFU/mL, 10 mM phosphate buffer
Procedure: Effect of defensins on the E. coli inner membrane was assessed by measuring the extent of intracellular accumulation of SYTOX green. Cells from mid-log-phase were collected, washed and resuspended in 10 mM phosphate buffer. The final density was adjusted to 5 × 10^6 CFU/mL. […] Enhancement in SYTOX green fluorescence, a direct measure of the extent of membrane permeabilization was monitored in a Flurolog 3–22 fluorescence spectrophotometer (Jobin Yvon, USA). Excitation and emission wavelengths used were 503 nm and 523 nm, respectively.  Fig 4 Accumulation of SYTOX green in human defensins treated E. coli. […] The arrows indicate the point at which defensins were added.

E. coli MG1655 = conditions: cited from earlier work
Excerpt: Table 2 Minimum Bactericidal Concentration (MBC) of human defensins against E. coli MG1655. | column: Minimum bactericidal concentration in μM^a

[3] = Calcein release assay from lipid vesicles; conditions: calcein entrapped POPC:POPG (1:1) LUVs, 25 μM, 10 mM sodium phosphate buffer pH 7.4, increasing defensin concentrations; 1% Triton X-100 = 100%
Procedure: Large unilamellar vesicles (LUVs) composed of POPC:POPG (1:1) containing 50 mM calcein were prepared by lipid extrusion method. Desired amounts of lipids from their respective chloroform stocks were taken into a glass tube and dried under a nitrogen stream to form a thin uniform lipid film. The film was further dried under vacuum for 5 to 6 hours to remove trace amounts of organic solvents. After this step, the lipid film was hydrated with 10 mM sodium phosphate buffer (pH 7.4) containing 50 mM calcein at 4°C for 12 to 15 hours. Hydrated lipid films were then vortexed and passed through polycarbonate membrane having a pore diameter of 100 nm using a mini-extruder (Avanti Polar Lipid Inc.). Free calcein was removed by passing through a Sephadex G50 column. Calcein entrapped vesicles (25 μM) were then treated with increasing concentrations of defensins and extent of calcein released was measured in a Fluorolog 3–22 fluorescence spectrophotometer (Jobin Yvon, USA). Excitation and emission wavelengths used were 485 and 515 nm, respectively. 1% Triton X-100 was used for complete release of calcein.  Fig 5 Effect of human defensins on POPC:POPG (1:1) vesicles. Calcein entrapped POPC: POPG vesicles (25 μM) were treated with increasing concentrations of human defensins and percentage of calcein released was calculated. Calcein released by 1% Triton X-100 was taken as 100%.

[4] = Transmission electron microscopy of defensin aggregates; format: physicochemical; conditions: 20 μM defensin in 10 mM sodium phosphate buffer pH 7.4, uranyl acetate stain, TEM
Procedure: Defensins were diluted to a concentration of 20 μM in 10 mM sodium phosphate buffer (pH 7.4) from their respective stocks solutions (dissolved in Milli-Q water). From these solutions, 5 μL was deposited on a carbon-coated Formvar 200-mesh copper grid. The grid was left undisturbed for about 5 minutes; excess buffer was then removed using Whatman filter paper. Grids were stained with uranyl acetate (2% w/v) for 45 seconds. Excess stain was removed and grids were used for recording the images. Images were recorded using JAM-2100 LaB6 transmission electron microscope (JEOL, Tokyo, Japan) at 100 kV.

E. coli inner membrane [5] = conditions: ref Wang et al. [55]; cited from earlier work
Procedure: Recent findings indicate HD5 exerts its activity against the E. coli by localizing to bacterial cytoplasm and possibly interacting with DNA [39]. In a very recent study, Wang et al., have shown that HD5 permeabilizes the E. coli inner membrane. However, prolonged incubation (~40 minutes) was required t ...

[6] = ref Krishnakumari et al. 2013 [44]

DHYNC^1VSSGGQC^2LYSAC^3PIFTKIQGTC^2YRGKAKC^1C^3K (bicyclic or more) [HBD1, human β-defensin, three disulfide bonds, purchased from Peptides International]
Intracellular accumulation of SYTOX green (E. coli inner membrane permeabilization) (E. coli inner membrane [1]): faint accumulation of SYTOX green | time at which SYTOX green accumulation is evident (E. coli inner membrane [1]): ~ 20 min | E. coli surface charge neutralizing ability (change in zeta potential) (E. coli): poor surface charge neutralizing ability | Damage to the E. coli inner membrane (SYTOX green accumulation, time-lapse microscopy and fluorescent spectroscopy) (E. coli inner membrane [2]): do not cause extensive damage to the E. coli inner membrane | Minimum bactericidal concentration (E. coli MG1655; [6]): 8 µM | Permeabilization of lipid vesicles (calcein release) [3]: do not permeabilize membranes

CC[C@H](C)[C@@H]1NC(=O)[C@H](CC(C)C)NC(=O)[C@@H]2CSSC[C@@H]3NC(=O)[C@H](CO)NC(=O)[C@@H](NC(=O)[C@@H](N)C(C)C)CSSC[C@@H](C(=O)N[C@H](C(=O)N[C@@H](CCCNC(=N)N)C(=O)N[C@H](C(=O)O)C(C)C)[C@@H](C)O)NC(=O)[C@H](CSSC[C@H](NC(=O)[C@H](Cc4ccccc4)NC(=O)[C@H](C(C)C)NC(=O)[C@H](CC(C)C)NC(=O)[C@H](CCCNC(=N)N)NC3=O)C(=O)N[C@@H](CCCNC(=N)N)C(=O)N[C@@H](CCCNC(=N)N)C(=O)N[C@@H]([C@@H](C)O)C(=O)N[C@@H](CCC(=O)O)C(=O)N[C@@H](CC(C)C)C(=O)N[C@@H](CCCNC(=N)N)C(=O)N[C@@H](C(C)C)C(=O)NCC(=O)N[C@@H](CC(N)=O)C(=O)N2)NC(=O)[C@H](Cc2ccc(O)cc2)NC(=O)[C@H]([C@@H](C)O)NC(=O)[C@H](Cc2ccccc2)NC(=O)[C@H](CO)NC(=O)[C@H](C(C)C)NC(=O)CNC(=O)CNC1=O [HNP4] (HELM PEPTIDE1{V.C.S.C.R.L.V.F.C.R.R.T.E.L.R.V.G.N.C.L.I.G.G.V.S.F.T.Y.C.C.T.R.V}$PEPTIDE1,PEPTIDE1,2:R3-30:R3|PEPTIDE1,PEPTIDE1,4:R3-19:R3|PEPTIDE1,PEPTIDE1,9:R3-29:R3$$$V2.0; N-terminus and C-terminus assumed)
Intracellular accumulation of SYTOX green (E. coli inner membrane permeabilization) (E. coli inner membrane [1]): cytoplasmic accumulation of SYTOX green is evident | time at which SYTOX green accumulation is evident (E. coli inner membrane [1]): 11 min

AFTC^1HC^2RRSC^3YSTEYSYGTC^2TVMGINHRFC^3C^1L (bicyclic or more) [HD6]
E. coli surface charge neutralizing ability (change in zeta potential) (E. coli): neutralizes the E. coli surface charge more efficiently than HBD4 (+7), HBD1 (+ 4) and HNP3 (+2) | Damage to the E. coli inner membrane (SYTOX green accumulation, time-lapse microscopy and fluorescent spectroscopy) (E. coli inner membrane [2]): do not cause extensive damage to the E. coli inner membrane | Permeabilization of lipid vesicles (calcein release) [3]: do not permeabilize membranes | Morphology of self-assembled aggregates (electron micrographs) [4]: distinctive fibrillar morphology

GIGDPVTC^1LKSGAIC^2HPVFC^3PRRYKQIGTC^2GLPGTKC^1C^3KKP (bicyclic or more) [HBD2, human β-defensin, three disulfide bonds, purchased from Peptides International]
Minimum bactericidal concentration (E. coli MG1655; [6]): 8 µM

CC[C@H](C)[C@@H]1NC(=O)[C@H](CCC(=O)O)NC(=O)[C@@H]2CSSC[C@@H]3NC(=O)[C@H](Cc4ccc(O)cc4)NC(=O)[C@@H](NC(=O)[C@@H](NC(=O)[C@H](C)N)[C@@H](C)O)CSSC[C@@H](C(=O)N[C@@H](CCCNC(=N)N)C(=O)O)NC(=O)[C@H](CSSC[C@H](NC(=O)[C@H](CCCNC(=N)N)NC(=O)CNC(=O)[C@H]([C@@H](C)O)NC(=O)[C@H](CCCNC(=N)N)NC3=O)C(=O)N[C@@H](C)C(=O)N[C@@H]([C@@H](C)O)C(=O)N[C@@H](CCCNC(=N)N)C(=O)N[C@@H](CCC(=O)O)C(=O)N[C@@H](CO)C(=O)N[C@@H](CC(C)C)C(=O)N[C@@H](CO)C(=O)NCC(=O)N[C@@H](C(C)C)C(=O)N2)NC(=O)[C@H](CC(C)C)NC(=O)[C@H](CCCNC(=N)N)NC(=O)[C@H](Cc2ccc(O)cc2)NC(=O)[C@H](CC(C)C)NC(=O)[C@H](CCCNC(=N)N)NC(=O)CNC(=O)[C@H](CO)NC1=O [HD5] (HELM PEPTIDE1{A.T.C.Y.C.R.T.G.R.C.A.T.R.E.S.L.S.G.V.C.E.I.S.G.R.L.Y.R.L.C.C.R}$PEPTIDE1,PEPTIDE1,3:R3-31:R3|PEPTIDE1,PEPTIDE1,5:R3-20:R3|PEPTIDE1,PEPTIDE1,10:R3-30:R3$$$V2.0; N-terminus and C-terminus assumed)
Intracellular accumulation of SYTOX green (E. coli inner membrane permeabilization) (E. coli inner membrane [1]): does not permeabilize the E. coli inner membrane; also recorded: faint localization of SYTOX green | time at which SYTOX green accumulation is evident (E. coli inner membrane [1]): 30 min | E. coli surface charge neutralizing ability (change in zeta potential) (E. coli): neutralizes the E. coli surface charge at much lower concentration than HNP4 | concentration found to neutralize the E. coli surface charge almost completely (E. coli): 2.5 µM | Damage to the E. coli inner membrane (SYTOX green accumulation, time-lapse microscopy and fluorescent spectroscopy) (E. coli inner membrane [2]): do not cause extensive damage to the E. coli inner membrane | Permeabilization of lipid vesicles (calcein release) [3]: do not permeabilize membranes | incubation required to observe E. coli inner membrane perturbation (E. coli inner membrane [5]): ~ 40 minutes | Morphology of self-assembled aggregates (electron micrographs) [4]: rod-like structures

GIINTLQKYYC^1RVRGGRC^2AVLSC^3LPKEEQIGKC^2STRGRKC^1C^3RRKK (bicyclic or more) [HBD3, human β-defensin, three disulfide bonds, purchased from Peptides International]
E. coli surface charge neutralizing ability (change in zeta potential) (E. coli): most efficient bacterial surface charge neutralizing ability | concentration found to neutralize the E. coli surface charge almost completely (E. coli): 0.5 µM | Minimum bactericidal concentration (E. coli MG1655; [6]): 2 µM

ELDRIC^1GYGTARC^2RKKC^3RSQEYRIGRC^2PNTYAC^1C^3LRKWDESLLNRTKP (bicyclic or more) [HBD4, human β-defensin, three disulfide bonds, purchased from Peptides International]
Morphological features of FM4-64 stained E. coli inner membrane (E. coli inner membrane [1]; 3 μM FM4-64, sub-lethal defensin concentration (HBD4 3 μM)): FM4-64 staining shows considerable diffusion into cytoplasm | Minimum bactericidal concentration (E. coli MG1655; ref Sharma and Nagaraj 2012 [45]): 5 µM | Permeabilization of lipid vesicles (calcein release) [3]: does not permeabilize PC:PG vesicles
